Results from US11141413B2, “Method of treating renal cell carcinoma using N-(4-(6,7-dimethoxyquinolin-4-yloxy)phenyl)-N′-(4-fluorophenyl)cyclopropane-1,1-dicarboxamide, (2S)-hydroxybutanedioate” (Exelixis, Inc., priority 2016, dated 2021).

Columns and labels:
[1] = system: patients with advanced renal cell carcinoma; assay: METEOR quality of life (FKSI-19, FKSI-DRS, EQ-5D-5L) and time to deterioration; format: in vivo, human; details: for EQ-VAS, Cabo vs Evero Intercept (change at Week 4) / EQ-VAS, Cabo vs Evero Slope / FKSI-19 Total, Cabo vs Evero Intercept (change at Week 4) / FKSI-19 Total, Cabo vs Evero Slope / FKSI-DRS (9-item), Cabo vs Evero Intercept (change at Week 4) / FKSI-DRS (9-item), Cabo vs Evero Slope: growth curve analysis
From the text: Patients completed the 19-item Functional Assessment of Cancer Therapy-Kidney Symptoms Index (FKSI-19) and the 5-level EuroQoL-5 Dimensions (EQ-5D-5L) questionnaires at baseline and throughout the study. The 9-item FKSI-Disease Related Symptoms (FKSI-DRS) is a subset of FKSI-19. Data were summarized descriptively and by mixed-effects repeated-measures analysis (clinically relevant difference was an effect size ≥0.3). Time to deterioration (TTD) was defined as earlier of death, radiographic progressive disease or ≥4-point decrease from baseline in FKSI-DRS.
QoL was measured by using two validated patient self-reported instruments: the Functional Assessment of Cancer Therapy-Kidney Symptom Index-19 item (FKSI-19) and EuroQol Group's EQ-5D-5L questionnaires. Patients were required to complete the QoL questionnaires before any assessments at each clinic visit prior to the first dose, every 4 weeks through Week 25, every 8 weeks thereafter for the first year, then every 12 weeks thereafter. The QoL assessments were conducted per protocol prior to the patient knowing the results of their next tumor assessment. These assessments were performed regardless of whether study treatment was given, reduced, interrupted, or discontinued until the date of the last tumor imaging assessment. Questionnaires were provided on paper in the patient's own language.
The FKSI-19 instrument is a 19-item self-reported questionnaire with a total score and four subscales that assesses disease-related symptoms (DRS), treatment side effects, and function/well-being associated with advanced kidney cancer. It queries symptom severity and interference in activity and general health perceptions (Rao D, Butt Z, Rosenbloom S, Robinson D Jr, Von Roenn J, Kuzel T M, Cella D. A Comparison of the Renal Cell Carcinoma-Symptom Index (RCC-SI) and the Functional Assessment of Cancer Therapy-Kidney Symptom Index (FKSI). J Pain Symptom Manage. 2009; 38(2):291-8; Rothrock N E, Jensen S E, Beaumont J L, Abernethy A P, Jacobsen P B, Syrjala K, Cella D. Development and initial validation of the NCCN/FACT symptom index for advanced kidney cancer. Value Health. 2013; 16(5):789-96). The FKSI-19 comprises four sub-scales (DRS-Physical, DRS-Emotional, Treatment Side Effects, and Function/Well Being; Table 2.1). Each of the items is scored on a 5-point scale from 0 (not at all) to 4 (very much). Higher FKSI-19 scores indicate improvement. The FKSI-19 ensures content validity congruent with FDA Guidance (FDA. Guidance for Industry. Patient-Reported Outcome Measures: Use in Medical Product Development to Support Labeling Claims. December 2009). and was developed from a previous 9-item DRS version (FKSI-DRS; lack of energy, pain, losing weight, fatigue, short of breath, fevers, bone pain, coughing, blood in urine). The FKSI-19 includes selected treatment side effects that are important to the patient and physician.
The standardized measure of health status EQ-5D-5L, developed by the EuroQol, was also used in this study in order to measure generic health status (Herdman M, Gudex C, Lloyd A, Janssen M, Kind P, Parkin D, t al. Development and preliminary testing of the new five-level version of EQ-5D (EQ-5D-5L). Qual Life Res. 2011; 20(10):1727-36). It comprises five functional and symptom dimensions: mobility, self-care, usual activities, pain/discomfort, and anxiety/depression. Levels indicate increasing severity from Level 1 (no problem) to Levels 2 through 5 (mild problem to extreme problem). The digits from the 5 dimensions were converted into a single population-based index value normalized across the nine countries in the study for which index value sets were available (van Hout B, Janssen M F, Feng Y S, Kohlmann T, Busschbach J, Golicki D, et al. Interim scoring for the EQ-5D-5L: mapping the EQ-5D-5L to EQ-5D-3L value sets. Value Health. 2012; 15(5):708-15). Index values range from 0 to 1 and a higher index score indicates better health. […]

ROS1 = ROS1 (Homo sapiens, UniProt P08922); assay: In vitro biochemical and/or cellular kinase assays
Chain of ROS1 (P08922 28-2347): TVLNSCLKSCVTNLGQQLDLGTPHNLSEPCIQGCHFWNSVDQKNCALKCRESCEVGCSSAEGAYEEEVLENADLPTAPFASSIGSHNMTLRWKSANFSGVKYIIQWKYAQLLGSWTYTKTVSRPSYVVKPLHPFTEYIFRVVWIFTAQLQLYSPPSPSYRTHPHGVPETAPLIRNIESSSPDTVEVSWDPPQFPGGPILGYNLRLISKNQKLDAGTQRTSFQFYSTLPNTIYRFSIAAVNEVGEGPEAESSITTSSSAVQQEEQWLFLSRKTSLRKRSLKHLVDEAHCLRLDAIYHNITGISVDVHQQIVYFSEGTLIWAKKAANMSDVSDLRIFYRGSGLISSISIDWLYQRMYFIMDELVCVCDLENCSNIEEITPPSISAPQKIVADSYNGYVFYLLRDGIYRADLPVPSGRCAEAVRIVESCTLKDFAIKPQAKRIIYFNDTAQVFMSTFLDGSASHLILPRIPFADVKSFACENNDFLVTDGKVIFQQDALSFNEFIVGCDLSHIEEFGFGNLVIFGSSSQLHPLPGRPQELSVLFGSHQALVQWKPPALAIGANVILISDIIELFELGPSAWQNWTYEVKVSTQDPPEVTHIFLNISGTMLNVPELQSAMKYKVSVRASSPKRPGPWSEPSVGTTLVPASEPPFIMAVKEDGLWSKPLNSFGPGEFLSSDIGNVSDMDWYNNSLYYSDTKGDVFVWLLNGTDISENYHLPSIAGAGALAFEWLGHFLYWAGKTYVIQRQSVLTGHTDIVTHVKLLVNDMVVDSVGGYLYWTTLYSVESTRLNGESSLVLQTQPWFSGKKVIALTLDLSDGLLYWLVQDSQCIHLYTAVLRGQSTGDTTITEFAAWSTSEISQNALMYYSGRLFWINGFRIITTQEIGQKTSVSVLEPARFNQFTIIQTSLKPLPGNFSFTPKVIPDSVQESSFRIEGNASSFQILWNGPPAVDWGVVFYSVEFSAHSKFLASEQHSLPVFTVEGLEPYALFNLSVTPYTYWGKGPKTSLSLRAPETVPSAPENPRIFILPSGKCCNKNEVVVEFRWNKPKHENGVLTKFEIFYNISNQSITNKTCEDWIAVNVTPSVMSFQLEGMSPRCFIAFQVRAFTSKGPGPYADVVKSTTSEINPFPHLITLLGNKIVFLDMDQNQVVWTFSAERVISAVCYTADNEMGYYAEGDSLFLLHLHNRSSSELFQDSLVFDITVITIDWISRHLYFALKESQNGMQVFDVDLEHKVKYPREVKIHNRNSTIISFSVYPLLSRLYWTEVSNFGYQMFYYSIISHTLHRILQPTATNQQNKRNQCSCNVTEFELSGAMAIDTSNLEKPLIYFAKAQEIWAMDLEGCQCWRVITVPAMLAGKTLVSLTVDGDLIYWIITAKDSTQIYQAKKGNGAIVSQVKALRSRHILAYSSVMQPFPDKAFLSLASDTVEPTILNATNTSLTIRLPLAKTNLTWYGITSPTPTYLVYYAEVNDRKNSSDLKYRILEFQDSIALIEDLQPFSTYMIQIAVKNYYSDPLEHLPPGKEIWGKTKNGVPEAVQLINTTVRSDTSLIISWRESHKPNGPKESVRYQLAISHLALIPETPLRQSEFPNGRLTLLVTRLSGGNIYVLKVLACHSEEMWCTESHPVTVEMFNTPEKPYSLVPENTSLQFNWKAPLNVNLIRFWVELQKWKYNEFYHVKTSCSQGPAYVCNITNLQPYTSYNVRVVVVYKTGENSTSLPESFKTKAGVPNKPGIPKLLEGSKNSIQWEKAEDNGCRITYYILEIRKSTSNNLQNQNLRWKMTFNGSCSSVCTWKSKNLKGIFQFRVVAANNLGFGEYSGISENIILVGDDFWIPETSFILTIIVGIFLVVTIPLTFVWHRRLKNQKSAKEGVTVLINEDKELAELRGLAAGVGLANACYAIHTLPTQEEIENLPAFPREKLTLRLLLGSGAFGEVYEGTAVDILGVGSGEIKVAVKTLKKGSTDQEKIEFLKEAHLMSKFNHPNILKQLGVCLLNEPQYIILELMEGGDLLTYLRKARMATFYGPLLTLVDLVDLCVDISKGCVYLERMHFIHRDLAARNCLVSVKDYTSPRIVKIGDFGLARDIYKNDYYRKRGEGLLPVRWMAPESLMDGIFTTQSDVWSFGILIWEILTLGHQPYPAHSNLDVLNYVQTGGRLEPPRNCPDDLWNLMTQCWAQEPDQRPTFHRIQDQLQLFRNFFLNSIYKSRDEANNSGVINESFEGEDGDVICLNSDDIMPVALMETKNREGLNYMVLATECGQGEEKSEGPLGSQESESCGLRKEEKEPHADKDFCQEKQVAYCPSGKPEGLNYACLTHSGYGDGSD

FLT-3 = FLT-3 (Homo sapiens, UniProt P36888); assay: In vitro biochemical and/or cellular kinase assays
Chain of FLT-3 (P36888 27-993): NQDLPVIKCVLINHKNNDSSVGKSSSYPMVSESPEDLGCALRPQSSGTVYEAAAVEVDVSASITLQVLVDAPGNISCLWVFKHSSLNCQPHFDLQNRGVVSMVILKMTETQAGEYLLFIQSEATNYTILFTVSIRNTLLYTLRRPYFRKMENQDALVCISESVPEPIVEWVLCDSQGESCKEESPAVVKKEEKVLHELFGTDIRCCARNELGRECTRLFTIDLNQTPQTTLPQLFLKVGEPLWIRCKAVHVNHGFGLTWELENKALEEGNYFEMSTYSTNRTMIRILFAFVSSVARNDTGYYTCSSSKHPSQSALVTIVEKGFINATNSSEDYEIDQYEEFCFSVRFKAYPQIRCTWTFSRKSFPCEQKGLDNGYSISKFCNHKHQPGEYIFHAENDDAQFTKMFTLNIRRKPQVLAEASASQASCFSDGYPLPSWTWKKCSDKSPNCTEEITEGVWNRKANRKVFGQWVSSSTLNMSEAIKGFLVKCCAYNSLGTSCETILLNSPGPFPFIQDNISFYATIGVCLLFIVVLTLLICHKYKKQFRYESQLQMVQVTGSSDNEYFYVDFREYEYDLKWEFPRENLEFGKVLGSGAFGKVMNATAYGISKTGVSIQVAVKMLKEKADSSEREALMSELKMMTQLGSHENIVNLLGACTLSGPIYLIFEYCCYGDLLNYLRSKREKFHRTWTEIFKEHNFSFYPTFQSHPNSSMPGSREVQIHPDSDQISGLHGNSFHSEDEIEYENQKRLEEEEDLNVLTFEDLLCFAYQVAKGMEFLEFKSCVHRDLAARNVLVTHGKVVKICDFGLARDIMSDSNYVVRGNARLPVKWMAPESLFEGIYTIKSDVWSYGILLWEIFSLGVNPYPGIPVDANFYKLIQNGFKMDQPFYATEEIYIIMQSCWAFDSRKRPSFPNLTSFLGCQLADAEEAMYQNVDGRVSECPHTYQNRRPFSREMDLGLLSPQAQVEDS

CYP1A2 = CYP1A2 (Homo sapiens, UniProt P05177); assay: Metabolic pathways in vitro: effect of CYP inhibition on cabozantinib metabolite formation; format: in vitro ADME
Chain of CYP1A2 (P05177 whole entry): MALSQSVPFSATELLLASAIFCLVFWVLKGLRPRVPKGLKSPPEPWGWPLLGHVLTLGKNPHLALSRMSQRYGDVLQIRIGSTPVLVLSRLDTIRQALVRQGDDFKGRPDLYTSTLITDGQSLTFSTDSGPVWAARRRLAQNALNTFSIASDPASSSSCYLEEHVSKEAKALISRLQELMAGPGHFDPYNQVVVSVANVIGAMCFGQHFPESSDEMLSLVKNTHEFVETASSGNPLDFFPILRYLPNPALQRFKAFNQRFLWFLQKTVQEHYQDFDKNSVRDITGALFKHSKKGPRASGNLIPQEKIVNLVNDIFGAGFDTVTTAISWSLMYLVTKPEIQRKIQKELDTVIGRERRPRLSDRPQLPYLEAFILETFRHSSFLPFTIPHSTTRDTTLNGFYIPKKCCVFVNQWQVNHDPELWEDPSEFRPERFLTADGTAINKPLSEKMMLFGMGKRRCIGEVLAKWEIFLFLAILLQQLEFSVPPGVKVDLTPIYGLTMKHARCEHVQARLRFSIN

CYP2C8 = CYP2C8 (Homo sapiens, UniProt P10632); assay: In vitro CYP inhibition by cabozantinib; format: in vitro ADME
Chain of CYP2C8 (P10632 whole entry): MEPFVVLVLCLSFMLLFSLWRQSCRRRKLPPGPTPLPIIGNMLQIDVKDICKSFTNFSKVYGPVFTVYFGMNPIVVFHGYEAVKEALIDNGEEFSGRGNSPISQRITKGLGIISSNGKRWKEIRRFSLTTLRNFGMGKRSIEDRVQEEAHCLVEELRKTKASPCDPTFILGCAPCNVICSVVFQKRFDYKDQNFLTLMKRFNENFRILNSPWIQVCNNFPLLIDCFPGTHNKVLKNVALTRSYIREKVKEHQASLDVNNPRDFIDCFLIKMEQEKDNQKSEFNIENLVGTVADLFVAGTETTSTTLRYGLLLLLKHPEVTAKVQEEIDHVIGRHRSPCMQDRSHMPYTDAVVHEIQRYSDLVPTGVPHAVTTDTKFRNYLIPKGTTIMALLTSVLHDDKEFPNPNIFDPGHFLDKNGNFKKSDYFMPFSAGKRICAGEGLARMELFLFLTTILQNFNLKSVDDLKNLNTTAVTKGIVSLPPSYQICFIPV

CYP2D6 = CYP2D6 (Homo sapiens, UniProt P10635); assay: In vitro CYP inhibition by cabozantinib; format: in vitro ADME
Chain of CYP2D6 (P10635 whole entry): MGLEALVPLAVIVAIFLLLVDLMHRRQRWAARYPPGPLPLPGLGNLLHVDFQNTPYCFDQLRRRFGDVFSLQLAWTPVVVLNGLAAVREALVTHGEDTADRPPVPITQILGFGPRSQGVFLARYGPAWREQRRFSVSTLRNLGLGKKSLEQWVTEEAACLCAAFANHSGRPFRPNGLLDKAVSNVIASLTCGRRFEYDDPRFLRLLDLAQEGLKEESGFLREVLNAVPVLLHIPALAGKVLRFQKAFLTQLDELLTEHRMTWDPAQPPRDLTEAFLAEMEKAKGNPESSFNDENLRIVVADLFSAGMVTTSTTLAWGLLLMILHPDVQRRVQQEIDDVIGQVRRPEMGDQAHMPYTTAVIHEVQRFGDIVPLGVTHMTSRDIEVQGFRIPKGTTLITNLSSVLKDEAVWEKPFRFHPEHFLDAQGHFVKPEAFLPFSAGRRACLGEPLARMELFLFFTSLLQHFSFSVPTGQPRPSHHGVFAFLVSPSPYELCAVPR

CYP1A1 mRNA = assay: In vitro CYP induction by cabozantinib; format: in vitro ADME
[2] = FKSI-19 item, repeated measures, ITT
[3] = FKSI-19 subscale, repeated measures, ITT
[4] = bone metastases per IRC at baseline: No
[5] = bone metastases per IRC at baseline: Yes
[6] = cabozantinib vs everolimus, positive favors cabozantinib
[7] = Late Dropout (Week 41 or later)

Compound: COc1cc2nccc(Oc3ccc(NC(=O)C4(C(=O)Nc5ccc(F)cc5)CC4)cc3)c2cc1OC [cabozantinib]
- Able to work, LSMean change from baseline [1, 2]: −0.151
- Blood in my urine, LSMean change from baseline [1, 2]: 0.005
- Bone pain, LSMean change from baseline [1, 2]: 0.049
- Content with quality life, LSMean change from baseline [1, 2]: −0.035
- Coughing, LSMean change from baseline [1, 2]: 0.237
- Diarrhea, LSMean change from baseline [1, 2]: −1.28
- Enjoy life, LSMean change from baseline [1, 2]: −0.017
- Fatigued, LSMean change from baseline [1, 2]: −0.325
- Fevers, LSMean change from baseline [1, 2]: 0.056
- Good appetite, LSMean change from baseline [1, 2]: −0.166
- Lack of energy, LSMean change from baseline [1, 2]: −0.244
- Losing weight, LSMean change from baseline [1, 2]: −0.533
- Nausea, LSMean change from baseline [1, 2]: −0.236
- Pain, LSMean change from baseline [1, 2]: 0.125
- Short of breath, LSMean change from baseline [1, 2]: 0.029
- Side effects of treatment, LSMean change from baseline [1, 2]: −0.850
- Sleeping well, LSMean change from baseline [1, 2]: 0.018
- Weak all over, LSMean change from baseline [1, 2]: −0.281
- Worry condition worsen, LSMean change from baseline [1, 2]: 0.398
- DRS-Emotional, LSMean change from baseline [1, 3]: 0.398
- DRS-Physical, LSMean change from baseline [1, 3]: −1.093
- Function/Well-Being, LSMean change from baseline [1, 3]: −0.230
- Treatment Side Effects, LSMean change from baseline [1, 3]: −2.416
- Median TTD [1, 4]: 5.5 mo
- TTD HR, cabozantinib vs everolimus [1, 4]: 0.69
- Median TTD [1, 5]: 5.6 mo
- TTD HR, cabozantinib vs everolimus [1, 5]: 0.49
- Able to work, Effect Size [1, 6]: −0.037
- Blood in my urine, Effect Size [1, 6]: 0.023
- Bone pain, Effect Size [1, 6]: −0.008
- Content with quality life, Effect Size [1, 6]: −0.014
- Coughing, Effect Size [1, 6]: 0.28
- DRS-Emotional, Effect Size [1, 6]: 0.004
- DRS-Physical, Effect Size [1, 6]: 0.046
- EQ-VAS, Effect Size [1, 6]: −0.003
- Enjoy life, Effect Size [1, 6]: −0.002
- FKSI-19 (19-item) Total Score, Effect Size [1, 6]: −0.13
- FKSI-DRS (9-item), Effect Size [1, 6]: 0.087
- Fatigued, Effect Size [1, 6]: −0.017
- Fevers, Effect Size [1, 6]: 0.13
- Function/Well-Being, Effect Size [1, 6]: −0.019
- Good appetite, Effect Size [1, 6]: −0.23
- Lack of energy, Effect Size [1, 6]: −0.033
- Losing weight, Effect Size [1, 6]: −0.21
- Pain, Effect Size [1, 6]: 0.052
- Side effects of treatment, Effect Size [1, 6]: −0.24
- Sleeping well, Effect Size [1, 6]: 0.12
- Weak all over, Effect Size [1, 6]: −0.015
- Worry condition worsen, Effect Size [1, 6]: 0.004
- EQ-VAS, Cabo vs Evero Intercept (change at Week 4) ([1]; Early Dropout (before Week 24)): −1.933
- EQ-VAS, Cabo vs Evero Slope ([1]; Early Dropout (before Week 24)): 0.498
- FKSI-19 Total, Cabo vs Evero Intercept (change at Week 4) ([1]; Early Dropout (before Week 24)): 0.241
- FKSI-19 Total, Cabo vs Evero Slope ([1]; Early Dropout (before Week 24)): 0.131
- FKSI-DRS (9-item), Cabo vs Evero Intercept (change at Week 4) ([1]; Early Dropout (before Week 24)): 1.445
- FKSI-DRS (9-item), Cabo vs Evero Slope ([1]; Early Dropout (before Week 24)): 0.037
- EQ-VAS, Cabo vs Evero Intercept (change at Week 4) [1, 7]: −4.749
- EQ-VAS, Cabo vs Evero Slope [1, 7]: 0.134
- FKSI-19 Total, Cabo vs Evero Intercept (change at Week 4) [1, 7]: −5.141
- FKSI-19 Total, Cabo vs Evero Slope [1, 7]: 0.082
- FKSI-DRS (9-item), Cabo vs Evero Intercept (change at Week 4) [1, 7]: −1.307
- FKSI-DRS (9-item), Cabo vs Evero Slope [1, 7]: 0.046
- EQ-VAS, Cabo vs Evero Intercept (change at Week 4) ([1]; Median Dropout (Weeks 25-33)): −0.352
- EQ-VAS, Cabo vs Evero Slope ([1]; Median Dropout (Weeks 25-33)): 0.146
- FKSI-19 Total, Cabo vs Evero Intercept (change at Week 4) ([1]; Median Dropout (Weeks 25-33)): −2.003
- FKSI-19 Total, Cabo vs Evero Slope ([1]; Median Dropout (Weeks 25-33)): 0.141
- FKSI-DRS (9-item), Cabo vs Evero Intercept (change at Week 4) ([1]; Median Dropout (Weeks 25-33)): −0.313
- FKSI-DRS (9-item), Cabo vs Evero Slope ([1]; Median Dropout (Weeks 25-33)): 0.094
- TTD HR, cabozantinib vs everolimus ([1]; overall ITT, unstratified): 0.65
- Median time to deterioration (TTD) ([1]; overall ITT, earlier of death, rPD, ≥4-point FKSI-DRS decrease from baseline): 5.5 mo
- EQ-VAS, LSMean change from baseline ([1]; repeated measures, ITT): −1.32
- FKSI-19 (19-item) Total Score, LSMean change from baseline ([1]; repeated measures, ITT): −3.483
- FKSI-DRS (9-item), LSMean change from baseline ([1]; repeated measures, ITT): −0.52
- Inhibition of tyrosine kinase activity (ROS1): inhibits
- Inhibition of tyrosine kinase activity (FLT-3): inhibits
- Effect of inhibition of CYP1A2 on cabozantinib metabolite formation (CYP1A2): no effect
- Inhibition of CYP2C8 in vitro (CYP2C8): inhibitor
- Inhibition of CYP2D6 in vitro (CYP2D6): does not inhibit
- Induction of CYP1A1 mRNA (CYP1A1 mRNA): inducer
